Reference: patent US20250129021A1, “SMALL MOLECULE PROTEIN SYNTHESIS MODULATORS” (Interdict Bio, Inc., priority 2023, published 2025)

How the values were obtained:
BCL-2 = assay: In vitro transcription-translation (IVTT) assay, BCL-2 reporter; assay type: biochemical; conditions: HeLa S3 lysate, sfGFP/mCherry ratio, 2 hrs at 30° C.
Text: All reporter constructs have been cloned into the pT7CFE1-CHis plasmid (ThermoFisher #88860) using Gibson assembly procedures (NEB #E2611L). The parental pT7CFE1-CHis plasmid contains an EMCV IRES at the 5′UTR for translation initiation, a multiple-cloning site (MCS) for gene insertion, an optional C-terminal His-epitope tag, and polyA sequence in the 3′UTR to regulate mRNA stability. All reporters are designed to be inserted at the MCS to include a red fluorescent protein (mCherry), P2A self-cleaving peptide which releases the preceding mCherry protein product, and a fusion open reading frame containing a 3×FLAG epitope, a peptide sequence of interest (TEST), and green fluorescent protein (sfGFP).
Construct Plasmid Preparation: All plasmids are isolated from MACH1 cells (ThermoFisher) grown overnight in ampicillin-containing luria broth, and purified using ZymoPure Express Plasmid Midiprep Kit (Zymo Research). Constructs are sequenced verified and diluted to a working concentration of 110 ng/μL.
HeLa S3 Lysate Preparation: HeLa S3 cell pellets are acquired from Ipracell/Ipratech (Belgium) and shipped as 4 mL frozen cell pellets on dry ice for storage at −80° C. until use. The procedure for lysate preparation is as follows. Prepare 1× Lysis Buffer, cold and stored on ice:
Each preparation takes 8 cell pellets (4 ml packed volume each, approximately 1.0×10^9 cells per pellet). Thaw cell pellets from −80° C. on ice for 90 mins. Lay pellets horizontally on top of the ice and rotate every 30 mins to ensure even thawing. Once thawed, add 4 mL of cold lysis buffer to each pellet, and using a serological pipet, gently pipet up and down to break up clumps. Incubate resuspended cells in ice for an additional 30 mins (plunged into ice). During 30 min incubation, rinse and RNase-zap (Ambion) glass dounces (use loose pestle “A”), gently dry and place on ice until needed. Prepare RNase-free Eppendorf tubes for spinning and for batch storage. Add batch labels to 1.5-1.7 mL RNase-free microcentrifuge tubes (labeling scheme below). Each batch will have an extra 1.5-1.7 mL RNase-free microcentrifuge tube for 40 μL of lysate, label the top of this tube (labeling scheme below). After 30 min incubation, transfer all 8 mL of cell pellet to dounce. Cell lysis is complete after douncing 100 times. Aliquot cell lysis into 1.5-1.7 mL temporary-microcentrifuge tubes. Place tubes in centrifuge with “fins” out, and spin at 1,200×g for 5 mins. After the first spin use a 1 mL pipet to resuspend each tube and repeat spin. This acts as an additional lysis step, is more vigorous and increases lysate yield. During second spin get liquid N2 and a fresh conical tube on ice. After spin is complete, transfer supernatant (lysate) from microcentrifuge tubes into the 50 mL conical tube and keep on ice. Repeat steps 10-14 for all other cell pellets until completed. Once all cell lysate has been transferred to the 50 mL conical tube pipet to mix so the solution is homogenous. Transfer 1 mL of lysate into batch-labeled microcentrifuge tubes and flash freeze in liquid nitrogen. Be sure to pipet up and down to mix throughout transfer step. Place all tubes in the […] for long-term storage.
In vitro transcription-translation assay setup: Each assay includes a master mix containing lysate and shared components, a 96-well plate containing compound titrations for testing, a 96-well DNA plate with reporter constructs to be tested, 96-well skirted PCR plates, and 96-well flat-bottom, black, fluorescent assay plates. […]

MYC = assay: In vitro transcription-translation (IVTT) assay, MYC reporter; assay type: biochemical; conditions: HeLa S3 lysate, sfGFP/mCherry ratio, 2 hrs at 30° C.
In short: (§1)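 Reporter: mCherry, P2A, then 3×FLAG-target peptide-sfGFP fusion, IRES-initiated; HeLa S3 lysate IVTT; cpd dilutions 30 μM−0.1 μM half-log in 100% DMSO (dilution-plate conc); DNA added last; 2 h, 30° C; PBS quench.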

CCND1 = assay: In vitro transcription-translation (IVTT) assay, CCND1 reporter; assay type: biochemical; conditions: HeLa S3 lysate, sfGFP/mCherry ratio, 2 hrs at 30° C.
In short: as §1

MCL-1 = assay: In vitro transcription-translation (IVTT) assay, MCL-1 reporter; assay type: biochemical; conditions: HeLa S3 lysate, sfGFP/mCherry ratio, 2 hrs at 30° C.
In short: as §1

HEK 293T = assay: Cell viability (CellTiter-Fluor), HEK 293T; assay type: cell-based; conditions: Homo sapiens, 24-72 hrs
Experimental: (§2) Count and dispense 2,000-10,000 cells per well (100 μL volume) in black 96-well tissue culture microplate and let cells adhere overnight. Add compound dissolved in 100% DMSO to each well as needed and incubate cells in standard culture conditions for 24-72 hrs. Final DMSO concentration in each well should be 0.1-0.5%. At the desired time point, gently aspirate compound containing media and replace with PBS to wash. Repeat wash step for 2 total washes. Remove PBS and add 100 μL CellTiter-Fluor reagent (Promega) reagent to each well. Seal plate and incubate 1 hr at room temperature with orbital shaking. Analyze fluorescence using plate reader to quantify viable cells compared with vehicle (DMSO) control.

MCF7 = assay: Cell viability (CellTiter-Fluor), MCF7; assay type: cell-based; conditions: Homo sapiens, 24-72 hrs
Experimental: as §2

HPAF-II = assay: Cell viability (CellTiter-Fluor), HPAF-II; assay type: cell-based; conditions: Homo sapiens, 24-72 hrs
Experimental: as §2

KLE = assay: Cell viability (CellTiter-Fluor), KLE; assay type: cell-based; conditions: Homo sapiens, 24-72 hrs
Experimental: as §2

LS411N = assay: Cell viability (CellTiter-Fluor), LS411N; assay type: cell-based; conditions: Homo sapiens, LS-411N, 24-72 hrs
Experimental: as §2

NCI-H1915 = assay: Cell viability (CellTiter-Fluor), NCI-H1915; assay type: cell-based; conditions: 24-72 hrs
Experimental: as §2

HEPG2 = assay: Cell viability (CellTiter-Fluor), HEPG2; assay type: cell-based; conditions: Homo sapiens, 24-72 hrs
Experimental: as §2

KRAS G12D = assay: In vitro transcription-translation (IVTT) assay, KRAS G12D reporter; assay type: biochemical; conditions: HeLa S3 lysate, sfGFP/mCherry ratio, 2 hrs at 30° C.
In short: as §1

ALK = assay: In vitro transcription-translation (IVTT) assay, ALK reporter; assay type: biochemical; conditions: HeLa S3 lysate, sfGFP/mCherry ratio, 2 hrs at 30° C.
In short: as §1

IC50 (BCL-2) [µM] | IC50 (MYC) [µM] | IC50 (CCND1) [µM] | IC50 (MCL-1) [µM] | IC50 (MCF7) [µM] | IC50 (NCI-H1915) [µM] | IC50 (HEPG2) [µM] | IC50 (KRAS G12D) [µM] | IC50 (ALK) [µM] | Structure (SMILES) | IC50 (HEK 293T) [µM] | IC50 (HPAF-II) [µM] | IC50 (KLE) [µM] | IC50 (LS411N) [µM]
< 10 | < 10 | < 10 | < 10 | 1 to 4 | – | – | – | – | COc1ccc(C[C@H]2NC[C@H](O)[C@H]2OC(=O)NCCc2ccncc2C#N)cc1 [V187940, (2R,3S,4S)-4-hydroxy-2-[(4-methoxyphenyl)methyl]pyrrolidin-3-yl N-[2-(3-cyanopyridin-4-yl)ethyl]carbamate] | 0.25 to 1 | – | – | –
10 to 20 | < 10 | – | < 10 | 0.25 to 1 | ≥ 4 | 1 to 4 | – | – | COc1ccc(C[C@H]2NC[C@H](O)[C@H]2OC(=O)NCC[C@@H]2CCNC2)cc1 [V187878, (2R,3S,4S)-4-hydroxy-2-[(4-methoxyphenyl)methyl]pyrrolidin-3-yl N-{2-[(3S)-pyrrolidin-3-yl]ethyl}carbamate] | ≥ 4 | ≥ 4 | ≥ 4 | 1 to 4
10 to 20 | < 10 | – | < 10 | 1 to 4 | – | – | 10 to 20 | – | COc1ccc(C[C@H]2NC[C@H](O)[C@H]2OC(=O)NC[C@@H]2CCNC2)cc1 [V187685, (2R,3S,4S)-4-hydroxy-2-[(4-methoxyphenyl)methyl]pyrrolidin-3-yl N-[(3R)-pyrrolidin-3-ylmethyl]carbamate] | ≥ 4 | – | – | –
10 to 20 | < 10 | 10 to 20 | < 10 | – | – | – | – | – | COc1ccc(C[C@H]2NC[C@H](O)[C@H]2OC(=O)NCCc2nc[nH]c2C)cc1 [V187823, (2R,3S,4S)-4-hydroxy-2-[(4-methoxyphenyl)methyl]pyrrolidin-3-yl N-[2-(5-methyl-1H-imidazol-4-yl)ethyl]carbamate] | ≥ 4 | – | – | –
10 to 20 | – | 10 to 20 | < 10 | 1 to 4 | – | – | – | – | CNC(=O)CNC(=O)O[C@@H]1[C@@H](O)CN[C@@H]1Cc1ccc(OC)cc1 [V188017, (2R,3S,4S)-4-hydroxy-2-[(4-methoxyphenyl)methyl]pyrrolidin-3-yl N-[(methylcarbamoyl)methyl]carbamate] | 1 to 4 | – | – | –
< 10 | < 10 | – | < 10 | 1 to 4 | – | – | – | – | COc1ccc(C[C@H]2NC[C@H](O)[C@H]2OC(=O)NCCc2cnn[nH]2)cc1 [Cmpd V187783] | 0.25 to 1 | – | – | –
– | < 10 | < 10 | < 10 | 1 to 4 | 1 to 4 | – | – | – | COc1ccc(C[C@H]2NC[C@H](O)[C@H]2OC(=O)NCc2cc[nH]c(=O)c2)cc1 [V188053, (2R,3S,4S)-4-hydroxy-2-[(4-methoxyphenyl)methyl]pyrrolidin-3-yl N-[(2-oxo-1H-pyridin-4-yl)methyl]carbamate] | 1 to 4 | 1 to 4 | 1 to 4 | 1 to 4
< 10 | < 10 | < 10 | < 10 | 0.25 to 1 | 0.25 to 1 | ≥ 4 | – | – | COc1ccc(C[C@H]2NC[C@H](O)[C@H]2OC(=O)NCc2ccnc(N)c2)cc1 [V187988, (2R,3S,4S)-4-hydroxy-2-[(4-methoxyphenyl)methyl]pyrrolidin-3-yl N-[(2-aminopyridin-4-yl)methyl]carbamate] | 0.25 to 1 | 1 to 4 | 0.25 to 1 | 0.25 to 1
20 to 30 | < 10 | 20 to 30 | 10 to 20 | 1 to 4 | – | – | – | – | COc1ccc(C[C@H]2NC[C@H](O)[C@H]2OC(=O)NCCNc2nccs2)cc1 [V187826, (2R,3S,4S)-4-hydroxy-2-[(4-methoxyphenyl)methyl]pyrrolidin-3-yl N-[2-(1,3-thiazol-2-ylamino)ethyl]carbamate] | 1 to 4 | – | – | –
– | < 10 | < 10 | < 10 | 1 to 4 | – | – | – | < 10 | COc1ccc(C[C@H]2NC[C@H](O)[C@H]2OC(=O)NCCn2ccnc2)cc1 [V187819, (2R,3S,4S)-4-hydroxy-2-[(4-methoxyphenyl)methyl]pyrrolidin-3-yl N-[2-(imidazol-1-yl)ethyl]carbamate] | ≥ 4 | – | – | –
– | < 10 | 10 to 20 | – | 1 to 4 | ≥ 4 | – | 10 to 20 | < 10 | COc1ccc(C[C@H]2NC[C@H](O)[C@H]2OC(=O)NC[C@H]2CCNC2)cc1 [V187686, (2R,3S,4S)-4-hydroxy-2-(4-methoxybenzyl)pyrrolidin-3-yl (((S)-pyrrolidin-3-yl)methyl)carbamate] | ≥ 4 | ≥ 4 | – | ≥ 4
10 to 20 | < 10 | < 10 | < 10 | – | – | – | – | – | COc1ccc(C[C@H]2NC[C@H](O)[C@H]2OC(=O)NCCNc2cc[nH]n2)cc1 [V187827, (2R,3S,4S)-4-hydroxy-2-[(4-methoxyphenyl)methyl]pyrrolidin-3-yl N-[2-(1H-pyrazol-3-ylamino)ethyl]carbamate] | ≥ 4 | – | – | –
10 to 20 | < 10 | < 10 | < 10 | 1 to 4 | – | – | – | – | COc1ccc(C[C@H]2NC[C@H](O)[C@H]2OC(=O)NCC[C@H]2CCNC2)cc1 [Cmpd V187879] | ≥ 4 | – | – | –
– | < 10 | < 10 | < 10 | 1 to 4 | – | – | – | – | COc1ccc(C[C@H]2NC[C@H](O)[C@H]2OC(=O)NCCc2cnc(N)[nH]2)cc1 [Cmpd V187594] | ≥ 4 | – | – | –
20 to 30 | 20 to 30 | 10 to 20 | 10 to 20 | ≥ 4 | – | – | – | – | COc1ccc(C[C@H]2NC[C@H](O)[C@H]2OC(=O)NCCNc2ncc[nH]2)cc1 [V187825, (2R,3S,4S)-4-hydroxy-2-[(4-methoxyphenyl)methyl]pyrrolidin-3-yl N-[2-(1H-imidazol-2-ylamino)ethyl]carbamate] | ≥ 4 | – | – | –
< 10 | < 10 | < 10 | < 10 | 0.25 to 1 | 0.25 to 1 | 1 to 4 | – | – | COc1ccc(C[C@H]2NC[C@H](O)[C@H]2OC(=O)NCc2ccnnc2)cc1 [V187917, (2R,3S,4S)-4-hydroxy-2-[(4-methoxyphenyl)methyl]pyrrolidin-3-yl N-(pyridazin-4-ylmethyl)carbamate] | < 0.25 | 1 to 4 | 0.25 to 1 | 0.25 to 1
